Measurements reported in ChEMBL document CHEMBL1144217, “Design, synthesis and characterization of podocarpate derivatives as openers of BK channels” (Bioorg Med Chem Lett, 2008).

Molecular target: Calcium-activated potassium channel subunit alpha-1 (Homo sapiens) (UniProt Q12791)
Assay: Activation of human BKalpha channel expressed in CHOK1 cells assessed as increase in ionic current at 30 uM relative to control
Assay type: cell-based
Settings: CHO-K1

Sequence of Calcium-activated potassium channel subunit alpha-1 (Homo sapiens) (Q12791 whole entry): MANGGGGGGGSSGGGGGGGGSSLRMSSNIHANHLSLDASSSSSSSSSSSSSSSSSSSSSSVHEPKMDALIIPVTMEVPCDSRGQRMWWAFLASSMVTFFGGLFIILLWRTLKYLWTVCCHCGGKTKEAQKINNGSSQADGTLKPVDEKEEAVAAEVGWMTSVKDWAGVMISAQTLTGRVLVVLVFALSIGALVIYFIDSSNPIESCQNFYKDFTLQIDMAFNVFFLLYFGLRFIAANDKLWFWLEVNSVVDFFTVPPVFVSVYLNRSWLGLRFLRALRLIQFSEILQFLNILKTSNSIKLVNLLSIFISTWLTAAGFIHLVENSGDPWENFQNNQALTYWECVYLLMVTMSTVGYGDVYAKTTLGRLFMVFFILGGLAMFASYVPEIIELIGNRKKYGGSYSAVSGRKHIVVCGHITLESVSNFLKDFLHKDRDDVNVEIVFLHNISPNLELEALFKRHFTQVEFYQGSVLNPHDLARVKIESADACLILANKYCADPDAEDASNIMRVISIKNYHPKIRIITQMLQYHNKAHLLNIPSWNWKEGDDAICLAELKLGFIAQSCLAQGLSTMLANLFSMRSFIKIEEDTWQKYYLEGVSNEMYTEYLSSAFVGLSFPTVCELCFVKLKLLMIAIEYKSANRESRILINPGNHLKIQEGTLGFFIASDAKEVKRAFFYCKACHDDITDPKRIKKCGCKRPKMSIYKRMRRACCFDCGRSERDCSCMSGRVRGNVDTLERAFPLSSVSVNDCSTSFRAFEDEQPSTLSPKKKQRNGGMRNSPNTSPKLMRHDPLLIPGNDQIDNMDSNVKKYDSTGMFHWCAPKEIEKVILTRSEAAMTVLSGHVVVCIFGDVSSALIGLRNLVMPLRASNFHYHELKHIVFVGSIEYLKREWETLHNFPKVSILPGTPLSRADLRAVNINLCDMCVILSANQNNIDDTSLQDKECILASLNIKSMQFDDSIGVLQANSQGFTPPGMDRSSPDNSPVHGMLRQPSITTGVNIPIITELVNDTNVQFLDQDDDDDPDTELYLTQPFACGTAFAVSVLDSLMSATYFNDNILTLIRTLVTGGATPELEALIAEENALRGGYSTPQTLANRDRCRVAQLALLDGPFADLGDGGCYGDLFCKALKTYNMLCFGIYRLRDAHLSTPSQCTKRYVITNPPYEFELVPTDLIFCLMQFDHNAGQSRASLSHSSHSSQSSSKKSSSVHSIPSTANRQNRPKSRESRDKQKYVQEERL

Row | Structure (SMILES) | Activity
1 | C[C@]1(C(=O)O)CCC[C@]2(C)c3cc(O)ccc3CC[C@@H]12 | 207%
2 | C[C@]1(C(=O)O)CCC[C@]2(C)c3cc(OCc4ccc(C#N)cc4)ccc3CC[C@@H]12 | 116%
3 | C=CCOc1ccc2c(c1)[C@@]1(C)CCC[C@](C)(C(=O)O)[C@@H]1CC2 | 148%
4 | C[C@]1(C(=O)O)CCC[C@]2(C)c3cc(OCc4ccc(OC(F)(F)F)cc4)ccc3CC[C@@H]12 | 139%
5 | C[C@]1(C(=O)O)CCC[C@]2(C)c3cc(OCC4CCCCC4)ccc3CC[C@@H]12 | 124%
6 | C[C@]1(C(=O)O)CCC[C@]2(C)c3cc(OCc4ccc(Cl)cc4)ccc3CC[C@@H]12 | 121%
7 | Cc1ccc(COc2ccc3c(c2)[C@@]2(C)CCC[C@](C)(C(=O)O)[C@@H]2CC3)cc1 | 151%
8 | C[C@]1(C(=O)O)CCC[C@]2(C)c3cc(OCCCc4ccccc4)ccc3CC[C@@H]12 | 244%
9 | C[C@]1(C(=O)O)CCC[C@]2(C)c3cc(OCCOCc4ccccc4)ccc3CC[C@@H]12 | 124%
10 | C[C@]1(C(=O)O)CCC[C@]2(C)c3cc(OCCN4CCCCC4)ccc3CC[C@@H]12 | 103%
11 | COC(=O)[C@@]1(C)CCC[C@]2(C)c3cc(OCCCc4ccccc4)ccc3CC[C@@H]12 | 116%
12 | C[C@]1(C(=O)O)CCC[C@]2(C)c3cc(OCc4ccc5ccccc5c4)ccc3CC[C@@H]12 | 122%
13 | COC(=O)[C@@]1(C)CCC[C@]2(C)c3cc(O)ccc3CC[C@@H]12 | 118%
14 | CC(C)Oc1ccc2c(c1)[C@@]1(C)CCC[C@](C)(C(=O)O)[C@@H]1CC2 | 134%
15 | COc1ccc(COc2ccc3c(c2)[C@@]2(C)CCC[C@](C)(C(=O)O)[C@@H]2CC3)cc1 | 109%

Further lines, results first:

Row | Activity | Structure (SMILES)
16 | 116% | CC(C)(C)c1ccc(COc2ccc3c(c2)[C@@]2(C)CCC[C@](C)(C(=O)O)[C@@H]2CC3)cc1
17 | 125% | CC(C)c1ccc(COc2ccc3c(c2)[C@@]2(C)CCC[C@](C)(C(=O)O)[C@@H]2CC3)cc1
18 | 130% | Cc1cc(C)cc(COc2ccc3c(c2)[C@@]2(C)CCC[C@](C)(C(=O)O)[C@@H]2CC3)c1
19 | 185% | C[C@]1(C(=O)O)CCC[C@]2(C)c3cc(OCc4ccc(C(F)(F)F)cc4)ccc3CC[C@@H]12
20 | 124% | COc1ccc2c(c1)[C@@]1(C)CCC[C@](C)(C(=O)O)[C@@H]1CC2
21 | 88.9% | Cc1ccccc1COc1ccc2c(c1)[C@@]1(C)CCC[C@](C)(C(=O)O)[C@@H]1CC2
22 | 170% | CCCOc1ccc2c(c1)[C@@]1(C)CCC[C@](C)(C(=O)O)[C@@H]1CC2
23 | 209% | C[C@]1(C(=O)O)CCC[C@]2(C)c3cc(OCc4ccccc4)ccc3CC[C@@H]12
